This passage reports T/C results from PubChem BioAssay AID256 (DTP/NCI, 2004).

For this assay, the system named is CD2F1 mice, L1210 leukemia ip, survival T/C. The assay is described as follows: NCI In Vivo Anticancer Drug Screen. Data for tumor model L1210 Leukemia (intraperitoneal) in CD2F1 (CDF1) mice. The conditions noted are these: higher = longer survival. The essentials: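 Implant tumor; dose compound or vehicle; measure endpoint in both groups; report treated divided by control.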

Setting [1] is: endpoint: mean survival time, dose: 100.0 mg/kg/injection, schedule: Q04DX003 (ip), vehicle: saline with Tween-80.
The mark [2] stands for this setting: endpoint: mean survival time, dose: 200.0 mg/kg/injection, schedule: Q04DX003 (ip), vehicle: saline with Tween-80.
Where [3] appears, read: endpoint: mean survival time, dose: 100.0 mg/kg/injection, schedule: Q04DX002 (ip), vehicle: saline with Tween-80.
[4] abbreviates: endpoint: mean survival time, dose: 200.0 mg/kg/injection, schedule: Q04DX002 (ip), vehicle: saline with Tween-80.
[5] abbreviates: endpoint: mean survival time, dose: 400.0 mg/kg/injection, schedule: Q04DX002 (ip), vehicle: saline with Tween-80.

Values joined by “and” are separate entries in the source; they are usually repeats but may differ in a detail not shown here. Equal values may be shown once. Toxic doses and inconclusive results are not listed.

Take `COC1CC(O)C2OC(c3ccccc3)OCC2O1` (configuration not stated): the T/C under setting [1] is 104 % of control; the T/C under setting [2] is 93 % of control; the T/C (endpoint: mean survival time, dose: 400.0 mg/kg/injection, schedule: Q04DX003 (ip), vehicle: saline with Tween-80) is 107 % of control.
Regarding `COc1ccc(C(C(N)=O)N2CCCC2)cc1` (configuration not stated), the T/C is 89 % of control (endpoint: mean survival time, dose: 100.0 mg/kg/injection, schedule: Q01DX009 (ip), vehicle: saline with Tween-80) and 90 % of control (endpoint: mean survival time, dose: 200.0 mg/kg/injection, schedule: Q01DX009 (ip), vehicle: saline with Tween-80).
Consider `NCCS/C=C/C(=O)Oc1ccc(Br)cc1`, for which the T/C by setting is: under setting [1], 103 % of control; under setting [2], 96 % of control.
As to `O=S1c2ccccc2-c2ccccc21`, the T/C was 92 % of control under setting [3], 100 % of control under setting [4] and 103 % of control under setting [5].
Turning to `O=C(c1cccnc1)c1c[nH]c2ccccc12`, the T/C is, setting by setting: under setting [3], 101 % of control; under setting [4], 97 % of control; under setting [5], 97 % of control.
For the compound `N[C@@H](Cc1ccc(N(CCCl)CCCl)cc1)C(=O)O`, the T/C runs as follows: (endpoint: mean survival time, dose: 0.25 mg/kg/injection, schedule: Q01DX009 (ip), vehicle: Klucel (hydroxypropylcellulose) (HPC)) 106 % of control and 108 % of control; (endpoint: mean survival time, dose: 0.25 mg/kg/injection, schedule: Q01DX009 (ip), vehicle: saline) 106 % of control; (endpoint: mean survival time, dose: 0.25 mg/kg/injection, schedule: Q04DX003 (ip), vehicle: saline) 113 % of control; (endpoint: mean survival time, dose: 0.5 mg/kg/injection, schedule: Q01DX009 (ip), vehicle: water) 113 % of control and 112 % of control; (endpoint: mean survival time, dose: 0.5 mg/kg/injection, schedule: Q04DX003 (ip), vehicle: saline) 118 % of control; (endpoint: mean survival time, dose: 0.75 mg/kg/injection, schedule: Q01DX009 (ip), vehicle: Klucel (hydroxypropylcellulose) (HPC)) 115 % of control. For the same compound, the T/C by setting is: (endpoint: mean survival time, dose: 1.0 mg/kg/injection, schedule: Q01DX009 (ip), vehicle: water) 115 % of control and 123 % of control; (endpoint: mean survival time, dose: 1.0 mg/kg/injection, schedule: Q## X010 (oral), vehicle: saline) 118 % of control; (endpoint: mean survival time, dose: 2.0 mg/kg/injection, schedule: Q01DX001 (ip), vehicle: Klucel (hydroxypropylcellulose) (HPC)) 118 % of control; (endpoint: mean survival time, dose: 2.0 mg/kg/injection, schedule: Q01DX001 (ip), vehicle: other) 108 % of control; (endpoint: mean survival time, dose: 2.0 mg/kg/injection, schedule: Q01DX001 (ip), vehicle: saline with Tween-80) 122 % of control; (endpoint: mean survival time, dose: 2.0 mg/kg/injection, schedule: Q01DX005 (oral), vehicle: saline) 121 % of control. Also, the T/C runs as follows: (endpoint: mean survival time, dose: 2.0 mg/kg/injection, schedule: Q01DX007 (ip), vehicle: saline) 166 % of control; (endpoint: mean survival time, dose: 2.0 mg/kg/injection, schedule: Q01DX009 (ip), vehicle: water) 153 % of control; (endpoint: mean survival time, dose: 2.0 mg/kg/injection, schedule: Q## X016 (oral), vehicle: saline) 103 % of control; (endpoint: mean survival time, dose: 2.5 mg/kg/injection, schedule: Q01DX009 (ip), vehicle: saline) 166 % of control; (endpoint: mean survival time, dose: 2.5 mg/kg/injection, schedule: Q04DX003 (ip), vehicle: saline) 153 % of control; (endpoint: mean survival time, dose: 3.0 mg/kg/injection, schedule: Q01DX009 (ip), vehicle: Klucel (hydroxypropylcellulose) (HPC)) 164 % of control. Also, the T/C runs as follows: (endpoint: mean survival time, dose: 4.0 mg/kg/injection, schedule: Q01DX001 (ip), vehicle: Klucel (hydroxypropylcellulose) (HPC)) 119 % of control; (endpoint: mean survival time, dose: 4.0 mg/kg/injection, schedule: Q01DX001 (ip), vehicle: other) 121 % of control; (endpoint: mean survival time, dose: 4.0 mg/kg/injection, schedule: Q01DX007 (ip), vehicle: saline) 168 % of control; (endpoint: mean survival time, dose: 4.0 mg/kg/injection, schedule: Q01DX009 (ip), vehicle: water) 155 % of control and 208 % of control; (endpoint: mean survival time, dose: 4.0 mg/kg/injection, schedule: Q03DX003 (ip), vehicle: saline) 170 % of control; (endpoint: mean survival time, dose: 4.0 mg/kg/injection, schedule: Q## X010 (ip), vehicle: saline) 160 % of control. The T/C runs as follows: (endpoint: mean survival time, dose: 4.0 mg/kg/injection, schedule: Q## X016 (oral), vehicle: saline) 104 % of control; (endpoint: mean survival time, dose: 4.5 mg/kg/injection, schedule: Q04DX003 (ip), vehicle: saline) 152 % of control; (endpoint: mean survival time, dose: 5.0 mg/kg/injection, schedule: Q01DX009 (ip), vehicle: saline) 198 % of control; (endpoint: mean survival time, dose: 6.0 mg/kg/injection, schedule: Q04DX003 (ip), vehicle: saline) 158 % of control; (endpoint: mean survival time, dose: 7.5 mg/kg/injection, schedule: Q01DX001 (ip), vehicle: saline) 158 % of control; (endpoint: mean survival time, dose: 7.5 mg/kg/injection, schedule: Q01DX009 (ip), vehicle: saline) 198 % of control. Also, the T/C (endpoint: mean survival time, dose: 7.5 mg/kg/injection, schedule: Q04DX003 (ip), vehicle: saline) is 198 % of control and 266 % of control; the T/C (endpoint: mean survival time, dose: 8.0 mg/kg/injection, schedule: Q01DX001 (ip), vehicle: DMSO) is 180 % of control; the T/C (endpoint: mean survival time, dose: 8.0 mg/kg/injection, schedule: Q01DX001 (ip), vehicle: Klucel (hydroxypropylcellulose) (HPC)) was 180 % of control; the T/C (endpoint: mean survival time, dose: 8.0 mg/kg/injection, schedule: Q01DX001 (ip), vehicle: saline with Tween-80) was 165 % of control; the T/C (endpoint: mean survival time, dose: 8.0 mg/kg/injection, schedule: Q01DX009 (ip), vehicle: water) was 120 % of control and 108 % of control; the T/C (endpoint: mean survival time, dose: 8.0 mg/kg/injection, schedule: Q03DX003 (ip), vehicle: saline) was 211 % of control. For the same compound, the T/C is, setting by setting: (endpoint: mean survival time, dose: 8.0 mg/kg/injection, schedule: Q## X010 (oral), vehicle: saline) 96 % of control; (endpoint: mean survival time, dose: 9.0 mg/kg/injection, schedule: Q04DX003 (ip), vehicle: saline) 217 % of control; (endpoint: mean survival time, dose: 12.0 mg/kg/injection, schedule: Q04DX003 (ip), vehicle: saline) 240 % of control; (endpoint: mean survival time, dose: 16.0 mg/kg/injection, schedule: Q01DX001 (ip), vehicle: DMSO) 221 % of control; (endpoint: mean survival time, dose: 16.0 mg/kg/injection, schedule: Q01DX001 (ip), vehicle: Klucel (hydroxypropylcellulose) (HPC)) 189 % of control; (endpoint: mean survival time, dose: 16.0 mg/kg/injection, schedule: Q01DX001 (ip), vehicle: saline with Tween-80) 265 % of control. Also, the T/C is 164 % of control (endpoint: mean survival time, dose: 16.0 mg/kg/injection, schedule: Q## X016 (oral), vehicle: saline); 303 % of control and 427 % of control (endpoint: mean survival time, dose: 20.0 mg/kg/injection, schedule: Q01DX001 (ip), vehicle: saline); 115 % of control (endpoint: mean survival time, dose: 32.0 mg/kg/injection, schedule: Q01DX001 (ip), vehicle: Klucel (hydroxypropylcellulose) (HPC)); 217 % of control (endpoint: mean survival time, dose: 32.0 mg/kg/injection, schedule: Q01DX001 (ip), vehicle: other); 183 % of control (endpoint: mean survival time, dose: 32.0 mg/kg/injection, schedule: Q01DX001 (ip), vehicle: saline with Tween-80); 151 % of control (endpoint: median survival time, dose: 1.0 mg/kg/injection, schedule: Q01DX009 (ip), vehicle: saline). Also, the T/C runs as follows: (endpoint: median survival time, dose: 1.25 mg/kg/injection, schedule: Q01DX009 (ip), vehicle: saline) 170 % of control; (endpoint: median survival time, dose: 1.5 mg/kg/injection, schedule: Q04DX003 (ip), vehicle: Klucel (hydroxypropylcellulose) (HPC)) 191 % of control; (endpoint: median survival time, dose: 2.0 mg/kg/injection, schedule: Q01DX005 (ip), vehicle: saline) 152 % of control; (endpoint: median survival time, dose: 2.0 mg/kg/injection, schedule: Q01DX009 (ip), vehicle: saline) 176 % of control; (endpoint: median survival time, dose: 2.5 mg/kg/injection, schedule: Q01DX001 (ip), vehicle: Klucel (hydroxypropylcellulose) (HPC)) 150 % of control and 195 % of control; (endpoint: median survival time, dose: 2.5 mg/kg/injection, schedule: Q01DX009 (ip), vehicle: saline) 205 % of control. For the same compound, the T/C is, setting by setting: (endpoint: median survival time, dose: 3.0 mg/kg/injection, schedule: Q04DX003 (ip), vehicle: Klucel (hydroxypropylcellulose) (HPC)) 182 % of control; (endpoint: median survival time, dose: 3.75 mg/kg/injection, schedule: Q01DX009 (ip), vehicle: saline) 158 % of control; (endpoint: median survival time, dose: 4.0 mg/kg/injection, schedule: Q01DX005 (ip), vehicle: saline) 176 % of control; (endpoint: median survival time, dose: 4.0 mg/kg/injection, schedule: Q01DX009 (ip), vehicle: saline) 227 % of control; (endpoint: median survival time, dose: 5.0 mg/kg/injection, schedule: Q01DX009 (ip), vehicle: saline) 357 % of control; (endpoint: median survival time, dose: 8.0 mg/kg/injection, schedule: Q01DX005 (ip), vehicle: saline) 211 % of control. For the same compound, the T/C reads like this: (endpoint: median survival time, dose: 8.0 mg/kg/injection, schedule: Q01DX009 (ip), vehicle: saline) 234 % of control; (endpoint: median survival time, dose: 10.0 mg/kg/injection, schedule: Q01DX001 (ip), vehicle: Klucel (hydroxypropylcellulose) (HPC)) 118 % of control; (endpoint: median survival time, dose: 12.0 mg/kg/injection, schedule: Q01DX001 (ip), vehicle: saline) 183 % of control and 193 % of control; (endpoint: median survival time, dose: 15.0 mg/kg/injection, schedule: Q01DX009 (ip), vehicle: saline) 114 % of control and 105 % of control.
